Literature values as cited in article PMC12285096, “Tirzepatide mitigates Stroke-Induced Blood-Brain barrier disruption by modulating Claudin-1 and C/EBP-α pathways” (Molecular Medicine, 2025).

Conditions: cited from earlier work; for BBB penetration (Kp, brain): limited BBB penetration of GLP-1 analogs, ref Rhea et al. [2024], Lee et al. [2023], Hunter and Hölscher [2012], Secher et al. [2014]

Substance | Brain-to-plasma ratio (Kp, brain) (in vivo) | BBB penetration (Kp, brain)
liraglutide | 0.03 ± 0.01 | 0.02–0.05
semaglutide |  | 0.02–0.05
